This passage reports IC50 and EC50 results from patent US9365541B2, “Compounds for use in the treatment of parasitic diseases” (IRBM—SCIENCE PARK S.P.A., priority 2012, dated 2016).

The term IC50 denotes the midpoint of a concentration-inhibition curve. In general, EC50 refers to the concentration needed to bring the measured effect to its halfway point. A lower EC50 goes with an effect from little substance.

The target of one test is T1, human HDAC1 (Homo sapiens, UniProt Q13547).
T1 construct: made in house; host or cells: HeLa (ATCC CCL-2), mammalian cells
Description: Homo sapiens HDAC1 inhibition assay (Fluor-de-Lys, enzymatic). The format is biochemical. Particulars: human HDAC enzymatic assay; read-out: hHDAC IC50. As for the experimental part: Biology Homo sapiens HDAC1 Inhibition Assay Overview:
The aim of the assay is to evaluate the inhibition of the deacetylase activity of human HDAC1. To such goal an acetylated substrate is added to the enzyme mix; the resulting enzymatic product is converted to a fluorescent molecule by the addition the enzyme trypsine (developer solution). Fluorescence intensity is inversely proportional to the rate of inhibition of the enzyme (as indicated in the material section below).
Reagents of the HDAC Fluorescent Activity Assay are purchased from Enzo Life Sciences (http://www.enzolifesciences.com/BML-AK500/fluor-de-lys-hdac-fluorometric-activity-assay-kit/) and feature the Fluor-de-Lys™ Substrate/Developer System.
c) Trichostatin A (TSA) Stock
TSA (Sigma-Aldrich, T8552) is provided as a 10 mM stock solution in 100% dimethylsulfoxide (DMSO).
Diluted Substrate Solution
The final concentration in the assay is 20 μM.
Diluted Developer Solution
2 μM [final] TSA to this solution increases its ability to stop the reaction.
The HDAC1 enzyme is diluted in assay buffer prior to each use from a fresh aliquot of enzyme.
The final concentration in the assay is 1-2 nM.
Test compounds should be prepared in 100% DMSO and transferred to the assay by a nano volume dispenser to reach the appropriate concentration and the appropriate DMSO concentration (0.25%) in the reaction.

The subject of test [1] is Plasmodium falciparum 3D7. Description: P. falciparum growth inhibition assay (Pf-LDH). The class given is cell-based. Particulars: Plasmodium falciparum, Erythrocyte; P. falciparum 3D7 infected erythrocytes, 72 h incubation, PfLDH readout. As for the experimental part:
Basic culture of Plasmodium falciparum 3D7 parasites (Malaria Research and Reference Reagent Resource Center (MR4), MR4 Number: MRA-102).
Starting with a culture with a parasitemia of about 10% (and 5% hematocrit), 0.5 ml of the culture is placed in a fresh 100 mm petri dish with 0.95 ml of fresh erythrocytes (50% hematocrit) and 8.55 ml of culture medium, giving a new starting parasitemia of 0.5%. The petri dish is then incubated at 37° C. in a humidified gas-tight plastic box flushed with a gas mixture consisting of 93% N2, 4% CO2, and 3% O2. The culture medium is changed daily. The supernatant is removed by gently tipping the dish without disturbing the settled cells and aspirating the medium with a Pasteur pipette connected to a vacuum pump. A small amount of the concentrated cells is taken to prepare a blood smear for determination of the parasitemia. Normally, the cultures are split twice a week. If the parasites are growing very slowly then fresh erythrocytes are added to the culture no later than after 7 days. The cultures are then split 1:2 if the parasitemia is lower than 0.5%. To avoid the necessity of daily medium change on weekends, a culture with a 2.5% hematocrit and 0.1-0.2% parasitemia is set up and can be left for 3 days without medium change.
Standard medium consists of RPMI 1640, supplemented with 25 mM HEPES, 24 mM NaHCO3, 0.36 mM hypoxanthine, 100 μg/ml Neomycin, 5 g/1 Albumax® II, and washed human red blood cells (rbcs) A+.
P. falciparum Growth Inhibition Assay (Pf-LDH)
Compounds of the invention were assessed for in vitro antimalarial activity against a cloroquine sensitive (3D7) strain of the malaria parasite Plasmodium falciparum, using a lactate dehydrogenase (PfLDH) assay.
EC50 Determination by Pf-LDH Assay
384 plates (where compounds to be tested are dispensed) with 25 μl of parasite inoculum (parasitemia: 0.25%, hematocrit: 2%) are incubated at 37° C. in an atmosphere of 4% CO2, 3% O2, 93% N2. After 72 h of incubation, plates are frozen at −70° C. overnight and thawed at room temperature for at least 4 h. To evaluate PfLDH activity, 70 μl of freshly made reaction mix (143 mM sodium L-lactate, 143 μM 3-acetyl pyridine adenine dinucleotide (APAD), 178.75 μM Nitro Blue tetrazolium chloride (NBT), 286 μg/ml diaphorase (2.83 U/ml), 0.7% Tween 20, 100 mM Tris-HCl pH 8.0) is dispensed using a Multidrop Combi dispenser. Plates are shaken to ensure mixing and absorbance at 650 nm is monitored in a plate reader after 10 min of incubation at room temperature.
Negative controls (0% Effect) are produced by addition of DMSO to the proper wells.
Positive controls (100% Effect) are produced by addition of 150 nM Artemisinin (Sigma-Aldrich, 361593)
After result normalization using positive and negative controls, compound potency is determined by fitting the following equation: % inh=Ymin+(Ymax−Ymin)/(1+(X/EC50)^slope)) Where: • Ymin=minimum percentage effect • Ymax=maximum percentage effect • EC50=the concentration of the compound at which 50% effect is reached • Slope=the slope of the curve calculated at the EC50 Histone Hyperacetylation and Immunodetection of Altered Histone Modifications Assay

T1 sequence (Q13547 whole entry): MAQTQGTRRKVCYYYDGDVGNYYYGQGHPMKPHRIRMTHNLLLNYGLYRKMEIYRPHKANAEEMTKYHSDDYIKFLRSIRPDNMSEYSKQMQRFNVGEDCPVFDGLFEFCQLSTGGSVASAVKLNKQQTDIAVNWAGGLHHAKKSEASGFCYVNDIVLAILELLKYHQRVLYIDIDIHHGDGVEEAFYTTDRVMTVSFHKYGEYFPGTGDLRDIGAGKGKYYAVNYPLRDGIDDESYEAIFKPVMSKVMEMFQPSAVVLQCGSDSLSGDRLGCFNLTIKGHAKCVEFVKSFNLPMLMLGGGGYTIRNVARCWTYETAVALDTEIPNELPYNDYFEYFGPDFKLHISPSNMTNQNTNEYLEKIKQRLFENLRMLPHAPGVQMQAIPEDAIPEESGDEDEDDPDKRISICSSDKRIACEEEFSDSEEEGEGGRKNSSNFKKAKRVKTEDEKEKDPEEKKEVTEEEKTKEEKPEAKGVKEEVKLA

As for `CNC(=O)CCCCC[C@H](NC(=O)c1ccc(N2CC(=O)NC2=O)cc1)c1ncc(-c2ccc3ccccc3c2)[nH]1` [Entry 41, (S)-4-(2,4-dioxoimidazolidin-1-yl)-N-(7-(methylamino)-1-(5-(naphthalen-2-yl)-1H-imidazol-2-yl)-7-oxo-heptyl)benzamide], on human HDAC1, the IC50 lay in the range of 1000 to 5000 nM. The EC50 in test [1] was < 1000 nM.
In the same order, the values of `CNC(=O)CCCCC[C@H](NC(=O)c1cccc(-n2nc(C)cc2C)c1)c1ncc(-c2ccc3ccccc3c2)[nH]1` [Entry 42, (S)-3-(3,5-dimethyl-1H-pyrazol-1-yl)-N-(7-(methylamino)-1-(5-(naphthalen-2-yl)-1H-imidazol-2-yl)-7-oxo-heptyl)benzamide] are 1000 to 5000 nM and 1000 to 5000 nM.
With `CNC(=O)CCCCC[C@H](NC(=O)c1nc2ncccn2n1)c1ncc(-c2ccc3ccccc3c2)[nH]1` [Entry 43, (S)-N-(7-(methylamino)-1-(5-(naphthalen-2-yl)-1H-imidazol-2-yl)-7-oxoheptyl)-[1,2,4]triazolo[1,5-a]pyrimidine-2-carboxamide], the IC50 on human HDAC1 lay in the range of 1000 to 5000 nM. Further, in test [1], the EC50 is > 5000 nM.
In the same order, the values of `CNC(=O)CCCCC[C@H](NC(=O)Cn1cnc2ccccc21)c1ncc(-c2ccc3ccccc3c2)[nH]1` [Entry 44, (S)-7-(2-(1H-benzo[d]imidazol-1-yl)acetamido)-N-methyl-7-(5-(naphthalen-2-yl)-1H-imidazol-2-yl)heptanamide] are < 1000 nM and 1000 to 5000 nM.
On to `CNC(=O)CCCCC[C@H](NC(=O)c1cnsn1)c1ncc(-c2ccc3ccccc3c2)[nH]1` [Entry 45, (S)-N-(7-(methylamino)-1-(5-(naphthalen-2-yl)-1H-imidazol-2-yl)-7-oxoheptyl)-1,2,5-thiadiazole-3-carboxamide], for which the IC50 at human HDAC1 is 1000 to 5000 nM. The EC50 in test [1] is > 5000 nM.
For `CNC(=O)CCCCC[C@H](NC(=O)c1cnsc1)c1ncc(-c2ccc3ccncc3c2)[nH]1` [Entry 46, (S)-N-(1-(5-(isoquinolin-7-yl)-1H-imidazol-2-yl)-7-(methylamino)-7-oxo-heptyl)isothiazole-4-carboxamide] the same measures were < 1000 nM and < 1000 nM.
For `CNC(=O)CCCCC[C@H](NC(=O)c1cscn1)c1ncc(-c2ccc3ccncc3c2)[nH]1` [Entry 47, (S)-N-(1-(5-(isoquinolin-7-yl)-1H-imidazol-2-yl)-7-(methylamino)-7-oxoheptyl)thiazole-4-carboxamide] the same measures were > 5000 nM and 1000 to 5000 nM.
For the compound `CNC(=O)CCCCC[C@H](NC(=O)C1CC1c1ccncc1)c1ncc(-c2ccc3ccncc3c2)[nH]1` (stereo partly drawn) [Entry 48, N-((S)-1-(5-(isoquinolin-7-yl)-1H-imidazol-2-yl)-7-(methylamino)-7-oxoheptyl)-2-(pyridin-4-yl)cyclopropane-carboxamide], on human HDAC1, the half-inhibitory concentration (IC50) fell in the range of 1000 to 5000 nM. The EC50 in test [1] lay within 1000 to 5000 nM.
Take `CNC(=O)CCCCC[C@H](NC(=O)c1cnc(C)s1)c1ncc(-c2ccc3ccncc3c2)[nH]1` [Entry 49, (S)-N-(1-(5-(isoquinolin-7-yl)-1H-imidazol-2-yl)-7-(methylamino)-7-oxoheptyl)-2-methylthiazole-5-carboxamide]: the IC50 on human HDAC1 was < 1000 nM. In addition, the EC50 in test [1] was < 1000 nM.
`CNC(=O)CCCCC[C@H](NC(=O)c1cnn(C(C)C)c1)c1ncc(-c2ccc(-c3ccn(C)n3)cc2)[nH]1` [Entry 50, (S)-1-isopropyl-N-(1-(5-(4-(1-methyl-1H-pyrazol-3-yl)phenyl)-1H-imidazol-2-yl)-7-(methylamino)-7-oxoheptyl)-1H-pyrazole-4-carboxamide]: the half-inhibitory concentration (IC50) at human HDAC1 fell in the range of 1000 to 5000 nM. In addition, in test [1], the EC50 is < 1000 nM.
For `CNC(=O)CCCCC[C@H](NC(=O)c1cncs1)c1ncc(-c2cc3ccccc3s2)[nH]1` [Entry 51, (S)-N-(1-(5-(benzo[b]thiophen-2-yl)-1H-imidazol-2-yl)-7-(methylamino)-7-oxoheptyl)thiazole-5-carboxamide], the IC50 at human HDAC1 lay in the range of 1000 to 5000 nM. This compound came in with an EC50 in test [1] of 1000 to 5000 nM.
Regarding `CNC(=O)CCCCC[C@H](NC(=O)c1cncs1)c1ncc(-c2ccc(C#N)cc2)[nH]1` [Entry 52, (S)-N-(1-(5-(4-cyanophenyl)-1H-imidazol-2-yl)-7-(methylamino)-7-oxoheptyl)thiazole-5-carboxamide], the IC50 at human HDAC1 is 1000 to 5000 nM. The EC50 in test [1] is > 5000 nM.
For `CNC(=O)CCCCC[C@H](NC(=O)c1cncs1)c1ncc(-c2ccc(NC(C)=O)cc2)[nH]1` [Entry 53, (S)-N-(1-(5-(4-acetamidophenyl)-1H-imidazol-2-yl)-7-(methylamino)-7-oxoheptyl)thiazole-5-carboxamide] the same measures were 1000 to 5000 nM and 1000 to 5000 nM.
For `CNC(=O)CCCCC[C@H](NC(=O)c1cncs1)c1ncc(-c2cc3cc(OC)ccc3[nH]2)[nH]1` [Entry 54, (S)-N-(1-(5-(5-methoxy-1H-indol-2-yl)-1H-imidazol-2-yl)-7-(methylamino)-7-oxoheptyl)thiazole-5-carboxamide] the same measures were 1000 to 5000 nM and 1000 to 5000 nM.
As to `COc1nc2ccccc2cc1-c1cnc([C@H](CCCCCC(N)=O)OC(=O)C23CCN(CC2)CC3)o1` [Entry 55], at human HDAC1, the IC50 is < 1000 nM. The compound also came in with an EC50 in test [1] of 1000 to 5000 nM.
As to `CNC(=O)CCCCC[C@H](OC(=O)C12CCN(CC1)CC2)c1ncc(-c2cc3ccccc3nc2OC)o1` [Entry 56], at human HDAC1, the IC50 is < 1000 nM. This compound also yielded an EC50 in test [1] of 1000 to 5000 nM.
In the same order, the values of `CNC(=O)CCCCC[C@H](NC(=O)c1cncs1)c1ncc(-c2ccc(Cl)cc2OC)[nH]1` [Entry 57, (S)-N-(1-(5-(4-chloro-2-methoxyphenyl)-1H-imidazol-2-yl)-7-(methylamino)-7-oxoheptyl)thiazole-5-carboxamide] are 1000 to 5000 nM and 1000 to 5000 nM.
As for `CNC(=O)CCCCC[C@H](NC(=O)Cn1ccnn1)c1ncc(-c2ccc3ccncc3c2)[nH]1` [Entry 58, (S)-7-(2-(1H-1,2,3-triazol-1-yl)acetamido)-7-(5-(isoquinolin-7-yl)-1H-imidazol-2-yl)-N-methylheptanamide], the IC50 at human HDAC1 fell in the range of 1000 to 5000 nM. Also, the concentration giving a half-maximal response (EC50) in test [1] was in the range of 1000 to 5000 nM.
For the compound `CNC(=O)CCCCC[C@H](NC(=O)c1cncs1)c1ncc(-c2ccc(-c3cc(C)[nH]n3)cc2)[nH]1` [Entry 59, (S)-N-(1-(5-(4-(5-methyl-1H-pyrazol-3-yl)phenyl)-1H-imidazol-2-yl)-7-(methylamino)-7-oxoheptyl)thiazole-5-carboxamide], the IC50 at human HDAC1 lay within 1000 to 5000 nM. The same compound had an EC50 in test [1] of 1000 to 5000 nM.
As to `CNC(=O)CCCCC[C@H](NC(=O)c1cncs1)c1ncc(-c2ccc(CN)cc2)[nH]1` [Entry 60, (S)-N-(1-(5-(4-(amino-methyl)phenyl)-1H-imidazol-2-yl)-7-(methylamino)-7-oxoheptyl)thiazole-5-carboxamide], the IC50 at human HDAC1 fell in the range of 1000 to 5000 nM. Besides, in test [1], the EC50 is > 5000 nM.
